Assay [1] concerns the target T1, Disintegrin and metalloproteinase domain-containing protein 17 (Homo sapiens, UniProt P78536).
Assay [2] has as its target T1, Disintegrin and metalloproteinase domain-containing protein 17. Format: functional, cell-based, THP-1.
The next assay deals with T2, Interstitial collagenase (Homo sapiens, UniProt P03956).
T2 sequence (P03956 whole entry): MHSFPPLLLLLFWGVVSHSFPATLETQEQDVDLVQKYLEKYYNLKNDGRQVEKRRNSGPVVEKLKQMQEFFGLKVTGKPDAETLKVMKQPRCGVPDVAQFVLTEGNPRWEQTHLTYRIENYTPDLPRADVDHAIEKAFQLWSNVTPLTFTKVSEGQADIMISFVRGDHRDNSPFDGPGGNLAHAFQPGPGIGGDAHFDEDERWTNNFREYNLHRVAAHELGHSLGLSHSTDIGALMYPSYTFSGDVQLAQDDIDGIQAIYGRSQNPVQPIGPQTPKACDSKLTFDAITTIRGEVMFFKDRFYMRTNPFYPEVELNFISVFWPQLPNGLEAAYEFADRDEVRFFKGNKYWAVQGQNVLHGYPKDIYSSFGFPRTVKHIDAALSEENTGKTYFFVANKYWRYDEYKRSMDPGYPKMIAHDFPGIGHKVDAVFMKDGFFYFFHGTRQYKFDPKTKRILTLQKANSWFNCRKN

The target of assay [3] is 72 kDa type IV collagenase (Homo sapiens, UniProt P08253).
Chain of 72 kDa type IV collagenase (P08253 whole entry): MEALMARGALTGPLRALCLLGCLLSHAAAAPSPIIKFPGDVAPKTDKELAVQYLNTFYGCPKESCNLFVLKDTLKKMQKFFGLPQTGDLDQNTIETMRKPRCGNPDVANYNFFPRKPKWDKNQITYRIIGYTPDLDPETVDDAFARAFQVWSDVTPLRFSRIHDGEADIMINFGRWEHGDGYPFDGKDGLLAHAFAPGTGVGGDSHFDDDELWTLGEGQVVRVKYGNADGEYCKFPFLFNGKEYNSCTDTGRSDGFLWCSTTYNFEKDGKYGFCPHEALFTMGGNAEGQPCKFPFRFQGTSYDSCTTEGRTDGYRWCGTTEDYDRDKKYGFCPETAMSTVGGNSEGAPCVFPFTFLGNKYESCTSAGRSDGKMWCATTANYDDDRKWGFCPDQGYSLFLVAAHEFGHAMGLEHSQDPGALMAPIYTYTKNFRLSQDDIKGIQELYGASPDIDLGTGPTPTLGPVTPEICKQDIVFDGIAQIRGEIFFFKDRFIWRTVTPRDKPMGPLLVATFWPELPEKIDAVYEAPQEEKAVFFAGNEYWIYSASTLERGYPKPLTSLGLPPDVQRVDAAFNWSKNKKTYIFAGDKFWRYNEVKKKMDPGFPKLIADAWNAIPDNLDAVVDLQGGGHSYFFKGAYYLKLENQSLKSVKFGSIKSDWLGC

T1 sequence (P78536 whole entry, the tested form may be a part): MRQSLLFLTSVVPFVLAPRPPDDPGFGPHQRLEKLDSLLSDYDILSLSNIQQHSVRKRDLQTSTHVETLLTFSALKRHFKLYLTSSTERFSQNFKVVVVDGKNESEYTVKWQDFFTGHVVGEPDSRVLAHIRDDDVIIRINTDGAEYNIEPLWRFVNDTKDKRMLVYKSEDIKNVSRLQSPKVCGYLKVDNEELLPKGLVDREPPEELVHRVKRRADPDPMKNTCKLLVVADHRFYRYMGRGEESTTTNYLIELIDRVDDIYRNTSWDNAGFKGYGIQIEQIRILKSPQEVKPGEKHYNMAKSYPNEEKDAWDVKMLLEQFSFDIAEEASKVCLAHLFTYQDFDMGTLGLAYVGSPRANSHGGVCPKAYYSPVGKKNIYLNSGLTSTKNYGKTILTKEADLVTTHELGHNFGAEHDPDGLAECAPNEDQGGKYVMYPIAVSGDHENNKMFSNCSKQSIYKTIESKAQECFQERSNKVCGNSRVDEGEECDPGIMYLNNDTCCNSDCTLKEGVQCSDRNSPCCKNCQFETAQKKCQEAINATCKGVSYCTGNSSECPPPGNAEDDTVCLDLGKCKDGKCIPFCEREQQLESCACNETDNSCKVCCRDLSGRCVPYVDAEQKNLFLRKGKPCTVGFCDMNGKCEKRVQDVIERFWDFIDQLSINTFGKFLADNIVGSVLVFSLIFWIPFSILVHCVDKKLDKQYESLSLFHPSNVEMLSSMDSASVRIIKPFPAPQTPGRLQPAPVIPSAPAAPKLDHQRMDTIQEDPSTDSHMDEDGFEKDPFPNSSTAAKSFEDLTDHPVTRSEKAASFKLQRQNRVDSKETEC

Take `COCCOc1cc(CCC[C@H]2C(=O)N[C@H](C(=O)c3ccccc3)Cc3ccc(cc3)OCCCC[C@@H]2C(=O)NO)cc(OC)c1`: the IC50 was 74 nM in assay [1], 15000 nM in assay [2] and more than 10000 nM at Interstitial collagenase.

Turning to `CC1(C)SCCN(S(=O)(=O)c2ccc(Oc3cccnc3)cc2)[C@H]1C(=O)NO`, the midpoint of inhibition against Interstitial collagenase, the IC50, lay at 5.7 nM.

Regarding `CNC(=O)[C@@H]1Cc2ccc(cc2)OCCCC[C@H](C(=O)NO)[C@@H](CCCc2ccc(Cl)cc2)C(=O)N1`, the IC50 worked out at 3.4 nM in assay [1] and 440 nM in assay [2].

The compound `COc1cc(CCC[C@H]2C(=O)N[C@H](C(=O)c3ccccc3)Cc3ccc(cc3)OCCCC[C@@H]2C(=O)NO)cc(OC)c1OC` showed an IC50 against Interstitial collagenase of more than 10000 nM.

For the compound `CNC(=O)[C@@H]1Cc2ccc(cc2)OCCCC[C@H](C(=O)NO)[C@@H](CCCc2cc(C(F)(F)F)cc(C(F)(F)F)c2)C(=O)N1`, the IC50 was 33 nM in assay [1], 300 nM in assay [2] and more than 10000 nM at Interstitial collagenase.

Regarding `COc1cc(Oc2ccc(S(=O)(=O)CC(C)C(=O)NO)cc2)cc(OC)c1OC` (stereo not drawn), the half-maximal inhibitory concentration (IC50) in assay [3] was 430 nM; against Interstitial collagenase it was more than 10000 nM.

Turning to `COc1cc(Oc2ccc(S(=O)(=O)N3CCSC(C)(C)[C@@H]3C(=O)NO)cc2)cc(OC)c1OC`, the IC50 is 21 nM in assay [3] and 26 nM against Interstitial collagenase.

Take `O=C(c1ccccc1)[C@@H]1Cc2ccc(cc2)OCCCC[C@H](C(=O)NO)[C@@H](CCCc2cc(Br)cc(Br)c2)C(=O)N1`: the IC50 in assay [1] is 87 nM; in assay [2], more than 5000 nM.

Take `COc1cc(Oc2ccc(SCC(C)C(=O)NO)cc2)cc(OC)c1OC` (stereo not drawn): the IC50 was 180 nM in assay [1], 3400 nM in assay [3] and more than 10000 nM on Interstitial collagenase.

Turning to `CNC(=O)[C@@H]1Cc2ccc(cc2)OCCCC[C@H](C(=O)NO)[C@@H](CCCc2cc(OC)ccc2OC)C(=O)N1`, the IC50 in assay [1] stood at 6.8 nM; in assay [2] it was 4100 nM.

Turning to `CNC(=O)[C@@H]1Cc2ccc(cc2)OCCCC[C@H](C(=O)NO)[C@@H](CCCc2cc(C)cc(C(C)C)c2)C(=O)N1`, the IC50 against Interstitial collagenase is more than 1000 nM.

`COc1cc(CCC[C@H]2C(=O)N[C@H](C(=O)c3ccccc3)Cc3ccc(cc3)OCCCC[C@@H]2C(=O)NO)cc(OC)c1`: on Interstitial collagenase, the IC50 is more than 10000 nM.

Values taken from ChEMBL document CHEMBL1133837, “Discovery of selective hydroxamic acid inhibitors of tumor necrosis factor-alpha converting enzyme” (Bioorg Med Chem Lett, 2001).
